From article PMC12627232 (MedComm, 2025)

Experiments:
HDAC2 = molecular target: T1, HDAC2 (Homo sapiens, UniProt Q92769); assay: HDACs enzymatic assay HDAC2; type: biochemical; settings: Class I; mean ± SD of three
T1 construct: purchased BPS BIOSCIENCE Inc 50052
Description: (§1) HDACs enzymatic assays were conducted according to our previous work. […] Substrates (Boc‐Lys(acetyl)‐AMC for HeLa nuclear extract, Ac‐Leu‐Gly‐Lys (Tfa)‐AMC for HDAC4, HDAC5, HDAC6, HDAC7, HDAC9, HDAC10, and HDAC11, Boc‐Lys(triflouroacetyl)‐AMC for HDAC8 and Ac‐Leu‐Gly‐Lys(acetyl)‐AMC for HDAC1, HDAC2, HDAC3) were added to the mixture. The blank group was set to no enzyme or drug but contains substrates and the control group was set to no drug but contains substrates and enzymes to each 96‐well plate. After 30 min of incubation at 37°C, the mixture was terminated with 1 mg/mL trypsin and 3 µM TSA. After another 30 min, the fluorescence intensity was measured using a Varioskan plate reader at 360/460 nm. […] The inhibition curves and IC50 values were simulated and calculated using the log(inhibitor) versus response (three parameters) mode in GraphPad Prism software.

HDAC3/NCOR1 complex = HDAC3/NCOR1 complex (Homo sapiens, UniProt O15379); assay: HDACs enzymatic assay HDAC3; type: biochemical; settings: Class I; mean ± SD of three
Sequence of HDAC3/NCOR1 complex (O15379 whole entry): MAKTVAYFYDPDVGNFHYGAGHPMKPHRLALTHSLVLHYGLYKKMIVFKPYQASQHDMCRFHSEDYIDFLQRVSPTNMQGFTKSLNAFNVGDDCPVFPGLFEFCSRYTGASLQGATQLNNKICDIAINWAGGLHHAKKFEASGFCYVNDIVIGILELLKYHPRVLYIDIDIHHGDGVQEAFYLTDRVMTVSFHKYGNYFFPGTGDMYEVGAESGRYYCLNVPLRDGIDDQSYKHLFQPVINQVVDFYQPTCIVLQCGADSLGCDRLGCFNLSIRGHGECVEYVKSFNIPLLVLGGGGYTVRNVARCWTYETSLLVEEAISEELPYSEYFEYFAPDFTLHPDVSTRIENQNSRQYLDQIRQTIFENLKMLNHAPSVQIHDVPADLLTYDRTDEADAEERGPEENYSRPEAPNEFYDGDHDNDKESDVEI
Sequence of HDAC3/NCOR1 complex (Q9Y618 395-489 partner): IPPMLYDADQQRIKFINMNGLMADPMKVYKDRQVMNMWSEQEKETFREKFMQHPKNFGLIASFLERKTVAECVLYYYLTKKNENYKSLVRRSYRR
Description: as §1

HDAC8 = molecular target: T2, HDAC8 (Homo sapiens, UniProt Q9BY41); assay: HDACs enzymatic assay HDAC8; type: biochemical
T2 construct: purchased BPS BIOSCIENCE Inc 50008
T2 sequence (Q9BY41 whole entry): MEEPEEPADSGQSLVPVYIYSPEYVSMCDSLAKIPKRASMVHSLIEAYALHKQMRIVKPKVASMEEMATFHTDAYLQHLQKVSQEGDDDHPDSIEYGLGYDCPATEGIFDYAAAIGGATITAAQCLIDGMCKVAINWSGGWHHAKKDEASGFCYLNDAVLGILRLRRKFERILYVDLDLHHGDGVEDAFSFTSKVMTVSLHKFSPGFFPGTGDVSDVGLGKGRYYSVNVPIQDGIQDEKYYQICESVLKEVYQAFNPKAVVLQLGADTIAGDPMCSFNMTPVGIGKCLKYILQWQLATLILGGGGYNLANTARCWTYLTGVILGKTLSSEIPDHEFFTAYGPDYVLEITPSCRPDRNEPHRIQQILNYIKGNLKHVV
Description: as §1

MDA-MB-231 = assay: CCK-8 antiproliferation assay; type: cell-based, human
Description: Cell lines purchased from the Cell Bank of Type Culture Collection of the Chinese Academy of Sciences (Shanghai, China) were passaged after resuscitation. […] The third to tenth passages of cells were used for experiments. […] After incubation, 20 µL CCK‐8 solution (MeilunBio) was added. Two hours later, absorption was measured by a Varioskan plate at 450 nm. Inhibition curves and IC50 values were simulated and calculated using the log(inhibitor) versus response (three parameters) mode via GraphPad Prism software.

[1] = In vitro metabolic assay, mouse liver microsomes; type: in vitro ADME
Description: Compounds were prepared in a working solution of 2 mg/mL with methanol. […]; Research Institute for Liver Disease (Shanghai) Co., Ltd) were mixed with NADPH (the final concentration is 4 mM), MgCl2 (the final concentration is 6 mM), and shaken at 37°C for 5 min. Then, compound solutions were added to the system and incubated for 0, 10, 20, 30, 60, 90, and 120 min at 37°C under shaking conditions. The mixture was quenched with cold acetonitrile and analyzed with a Shimadzu LC‐20AT system and a C18‐silica column (Thermo; 4.6 × 250 mm, 5 µm).

B16F10 syngeneic model = assay: B16F10 syngeneic model; type: in vivo; settings: C57BL/6J mice, HDAC inhibitors by oral gavage, anti-PD-L1 intraperitoneal, 7-day treatment
Description: With the approval of the ethics committee of Shandong University, C57BL/6J mice were purchased from Charles River and fed in SPF conditions at the Model Animal Research Centre of Shandong University. To establish the B16F10 syngeneic model, cells in logarithmic growth phase were trypsinized with 0.25% trypsin, resuspended in sterile PBS, and adjusted to 1 × 10^6 cells/100 µL. The cell suspension (100 µL) was subcutaneously injected into the left axilla. When tumors reached to certain volume, mice were randomized (n = 5/group) and treated with Chidamide, LBH‐589, or SDFZ‐8 by oral gavage and intraperitoneal injection of anti‐PD‐L1. Tumor growth curves were plotted over a 7‐day treatment cycle. All procedures complied with AAALAC International guidelines for humane endpoint criteria.

MDA-MB-231 cells [2] = assay: EdU assay; type: cell-based, human; settings: MDA-MB-231, 2 µM, 24 h
Description: The EdU assay is performed by BeyoClick EdU kit. MDA‐MB‐231 cells were cultured in a 6‐well plate overnight. […] Following labeling, cells are fixed with 4% PFA for 15 min, washed three times with wash buffer, and permeabilized using 0.3% Triton X‐100 for 15 min. After another wash, endogenous peroxidases are blocked for 20 min. For detection, a click reaction mix (containing Biotin Azide, CuSO4, and click additive) is added and incubated for 30 min. After washing, streptavidin–HRP is applied and reacted for 30 min, followed by 5 min DAB substrate incubation. Finally, cells are washed, optionally counterstained, and imaged under a microscope.

MDA-MB-231 cells [3] = assay: TUNEL assay; type: cell-based, human; settings: MDA-MB-231, 5 µM, 24 h
Description: The TUNEL assay was performed with the one‐step TUNEL apoptosis kit (MeilunBio) according to the manual from the manufacturer. Briefly, cells (5 × 10^5 cells per plate) were seeded in confocal dishes and incubated with drugs for 24 h. The medium was removed, and cells were fixed with 4% polyoxymethylene solution for 30 min. Subsequently, cells were treated with 20 µg/mL protease K for 5 min and TUNEL working solution for 1 h at 37°C. Eventually, cells were captured with a Leica TCS SP8 super‐resolution laser scanning confocal microscope.

MDA-MB-231 cells [4] = assay: GreenNuc assay for caspase-3 activation; type: cell-based, human; settings: MDA-MB-231, 24 h
Description: Caspase‐3 activation was detected with the GreenNuc caspase‐3 assay kit for live cells (Beyotime Inc). Cells (10^5 cells per well) were seeded in black 96‐well plates and treated with different concentrations of compounds. After 24 h, the medium was discarded, and cells were treated with GreenNuc caspase‐3 substrate at room temperature for 30 min. Fluorescence intensity was measured using a Varioskan plate reader at 485/515 nm, and the final activation folds were calculated.

MC38 cells = assay: PD-L1 expression in MC38 cells; type: cell-based; settings: 24 h

T1 sequence (Q92769 whole entry): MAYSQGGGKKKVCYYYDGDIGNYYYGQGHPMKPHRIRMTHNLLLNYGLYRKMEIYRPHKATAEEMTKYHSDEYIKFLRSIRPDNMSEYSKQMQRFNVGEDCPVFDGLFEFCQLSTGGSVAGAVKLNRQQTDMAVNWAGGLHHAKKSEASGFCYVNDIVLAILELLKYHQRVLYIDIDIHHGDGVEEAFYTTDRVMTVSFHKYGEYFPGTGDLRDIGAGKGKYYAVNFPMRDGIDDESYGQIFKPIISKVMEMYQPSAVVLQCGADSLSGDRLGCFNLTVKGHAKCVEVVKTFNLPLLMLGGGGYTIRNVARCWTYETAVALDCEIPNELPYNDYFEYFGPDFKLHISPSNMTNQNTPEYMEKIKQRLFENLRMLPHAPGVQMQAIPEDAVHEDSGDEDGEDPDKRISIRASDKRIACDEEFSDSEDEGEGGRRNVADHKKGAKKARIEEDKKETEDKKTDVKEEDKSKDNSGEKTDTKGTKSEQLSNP

O=C(CCCCCCNC(=O)c1cc(OCCc2ccccc2)c2ccccc2n1)NO [SDFZ-8]
IC50 (HDAC2): 5.8 ± 1.5 nM | IC50 (HDAC3/NCOR1 complex): 300 ± 100 nM | IC50 (HDAC8; Class I, mean ± SD of three): 750 ± 70 nM | selectivity toward HDAC8 (HDAC8; relative to HDAC1): more than 800 fold | IC50 (MDA-MB-231; Homo sapiens, MDA-MB-231, 48 h treatment, CCK-8): 470 ± 80 nM | antiproliferation activity better than SAHA (MDA-MB-231; MDA-MB-231 cells, versus SAHA): threefold | half-life ([1]; mouse liver microsomes, read-out: half-life T 1/2 in mouse liver microsomes): 12.3 min | microsomal CLint ([1]; mouse, microsomes): 56.3 µL/min/mg | TGI (B16F10 syngeneic model): 75% | EdU positive cells (MDA-MB-231 cells [2]): decreased | TUNEL green fluorescence (apoptosis) (MDA-MB-231 cells [3]): higher intensity of green fluorescence compared with SAHA | caspase-3 activation (MDA-MB-231 cells [4]): significantly higher than that observed for SAHA | expression level of PD-L1 (MC38 cells): increased
